The values that follow are results of earlier work, collected in patent US20040005347A1, “Composition comprising cocoa” (N. V. NUTRICIA, priority 2001, published 2004).

One data set has as its system PMS related symptoms. The settings on record: supplementation.
The next data set concerns serotonin levels. The settings on record: in vitro.

`[Mg+2]` [Magnesium]: the “PMS related symptoms, especially those related to mood” value in the data set with PMS related symptoms is listed as “improves”.

With `Cn1c(=O)c2c(ncn2C)n(C)c1=O` [caffeine], in the data set on serotonin levels, the serotonin levels result was “increase”.
